Where a SMILES comes first, the peptide text is derived from it. Bridges are numbered along the chain shown (N, C = ends).

The text below walks through data of paper PMC8648872, “A host-directed macrocyclic peptide therapeutic for MDR gram negative bacterial infections” (Scientific Reports, 2021).

Data set [1] is described as follows: Single dose pharmacokinetics (plasma and peritoneal fluid). As to conditions: both sexes, mouse, ip, 1.25 mg/kg single i.p., LC-MS/MS. The class given is in vivo, BALB/c mice. Here is the method: Single dose PK of MTD12813 was evaluated by quantifying plasma peptide concentrations following 1.25 mg/kg injections administered i.p. to 2 M/2F BALB/c mice. EDTA plasma was prepared from blood collected aseptically by terminal cardiac puncture. MTD12813 plasma concentrations were determined by reverse-phase liquid chromatography (XBridge phenyl 3.5 µm column, Waters) on an Acquity H-Class UPLC (Waters) with tandem electrospray mass spectroscopy on a Xevo TQ-S running MassLynx V4.1 (Waters). Quantitative mass spectroscopy was performed by multiple-reaction monitoring transition 394.04 > 519.35, with area under the curve determined by TargetLynx (Waters).
Cryopreserved Kp-1705 was suspended in PBS to a density of ca. 1 × 10^9 CFU/ml, and incubated with saline or 1.25 µg/ml MTD12813 at room temperature for 1 h. […] In vitro antibacterial activity of MTD12813 (1.25 μg/ml) -treated cells (1 h; 37 °C) was determined by plating saline or peptide treated cells on TSA plates. Growth kinetics of saline and MTD12813-treated cells was determined by diluting samples from the 1 h incubation mixtures 1:40 into TSB and monitoring growth (620 nm) for 5.5 h at 37 °C. Antibacterial activity of MTD12813 in PF was determined by i.p. injection of naïve male BALB/c mice (n = 5 per group) with 1.25 mg/kg of MTD12813 or saline i.p. (10 ml/kg). […]

In another data set the test system is human whole blood. Description: Cytokine release by human whole blood incubated with live Kp-1705. The class given is cell-based. As to conditions: human whole blood 1:10 in RPMI-1640, 1000 CFU/ml Kp-1705, 4 h, 37 °C, ELISA. The procedure: Log-phase […] grown in TSB were pelleted, washed twice in PBS, and suspended to 1 × 10^5 CFU/ml in RPMI-1640. EDTA-anticoagulated blood collected from a healthy adult human donor was incubated at a final dilution of 1:10 in RPMI-1640 with 1000 CFU/ml of Kp-1705 and varied concentrations of MTD12813 for 4 h 37 °C in 5% CO2 with gentle rocking. Incubation supernatants were frozen at − 80 °C. TNF and IL-6 were quantified by ELISA (Invitrogen KHC3011, KHC0061).
(ELISA stands for enzyme-linked immunosorbent assay.)

The subject of data set [2] is CRE and non-CRE strains of K. pneumoniae and E. coli. The data set is classed as cell-based. As to conditions: standard CLSI assay conditions. The procedure: Bacterial strains were obtained from American Type Culture Collection. K. pneumoniae strains included BAA-1705 (blaKPC-2, hypermucoid), BAA-2146 (blaNDM-1), BAA-700603 (SHV-18, extended spectrum β-lactamase, ESBL), and BAA-1706 (non-CRE reference strain). E. coli strains included BAA-2340 (blaKPC-2), BAA-2471 (blaNDM-1), and ML35 (non-CRE reference strain).
Minimum inhibitory concentration (MIC) assays were performed ± 50% heat-inactivated mouse serum using Clinical and Laboratory Standards Institute (CLSI; document M07-A9) protocols. Bacteria (5 × 10^5 CFU/ml) were incubated with antibiotics or peptide for 20 h at 37 °C, and bacterial growth was determined by A620 using a SpectraMax M5e plate reader.

Data set [3] in a line: Peptide stability with log-phase Kp-1705 (bacterial proteases). The class given is in vitro ADME, K. pneumoniae. The note with it: suspension of log-phase Kp-1705 bacteria, log-phase Kp-1705 (5 × 10^7 CFU/ml), 50 mM HEPES pH 7.4, 37 °C, LC–MS/MS, read-out: MTD12813 found intact. Here is the method:
(§1) MTD12813 (final concentration of 100 µg/ml) was added to either 90% human EDTA plasma or 90% human serum and incubated at 37 °C for 48 h. Samples were processed by addition of 10% HOAc and 5% ACN (final concentrations) at time 0 and 48 h, and MTD12813 was quantified by C18 RP-HLPC on an Acquity H-Class UPLC with an analytical PDA detector using Empower 3 software (Waters). All samples were performed with technical replicates and analyzed by UPLC in duplicate and the experiment repeated once. […] A time 0 h sample was collected, and the remaining suspension incubated at 37 °C for 24 h. Samples were processed by addition of 5% formic acid/5% acetonitrile, vortexed, and clarified at 22,000×g for 10 min. Supernatant MTD12813 was then quantified by LC–MS/MS as described in PK section above. All samples were performed with technical replicates and analyzed by LC–MS/MS in duplicate.

The nature of data set [4]: Peptide stability with log-phase E. coli ATCC-BAA-2340 (bacterial proteases). The class given is in vitro ADME. The note with it: suspension of log-phase E. coli ATCC-BAA-2340 bacteria, log-phase E. coli ATCC-BAA-2340, 50 mM HEPES, 37 °C, LC–MS/MS, read-out: MTD12813 found intact. Here is the method:
as §1

As a reminder, the Tmax is the time from dosing to the highest level. As to `CC[C@H](C)[C@@H]1NC(=O)[C@@H]2CSSC[C@H](NC(=O)[C@H]([C@@H](C)CC)NC(=O)[C@@H]3CSSC[C@H](NC1=O)C(=O)N[C@@H](C(C)C)C(=O)NCC(=O)N[C@@H](CCCNC(=N)N)C(=O)NCC(=O)N3)C(=O)N[C@@H](C(C)C)C(=O)N[C@@H](CCCNC(=N)N)C(=O)N[C@@H](CCCNC(=N)N)C(=O)N[C@@H](CCCNC(=N)N)C(=O)N2` [MTD12813] (cyclo(CICVGRGCICVRRR); disulfide 1-10, 3-8), in data set [1] (naïve BALB/c mice (2M/2F per time point), EDTA plasma, read-out: peak plasma concentration (Cmax)), the Cmax turned out to be 251 ± 79.8 ng/mL. Moreover, in data set [1] (naïve male and female BALB/c mice (2M/2F per time point), plasma), the Tmax was 15 min. The “release of TNF and IL-6” value in the data set on human whole blood is listed as “concentration-dependently suppressed”. Moreover, the “MIC against all seven organisms of the panel” value in data set [2] was in the range of 3.13 to 6.25 µg/mL. Besides, the remaining at 24 h, 1.25 µg/ml in data set [3] was 72.4 ± 0.93%; in data set [4] it was 81.3 ± 2.1%.
